Earlier results, collected in patent US20210023267A1, “POLYMER-PERMEATED GRAFTS AND METHODS OF MAKING AND USING THE SAME” (BIOAESTHETICS CORPORATION, priority 2018, published 2021).
In brackets after ≈: the same amount, converted by molar mass. Read-outs that look alike come from different tables or passages of the source.

Test system: S. aureus

CN[C@H](CC(C)C)C(=O)N[C@H]1C(=O)N[C@@H](CC(N)=O)C(=O)N[C@H]2C(=O)N[C@H]3C(=O)N[C@H](C(=O)N[C@H](C(=O)O)c4cc(O)cc(O)c4-c4cc3ccc4O)[C@H](O)c3ccc(c(Cl)c3)Oc3cc2cc(c3O[C@@H]2O[C@H](CO)[C@@H](O)[C@H](O)[C@H]2O[C@H]2C[C@](C)(N)[C@H](O)[C@H](C)O2)Oc2ccc(cc2Cl)[C@H]1O [vancomycin]
minimum inhibitory concentration (S. aureus): 1 µg/mL (≈ 0.69 µM) | minimum inhibitory concentration (S. aureus strains with complete resistance to vancomycin): 16 µg/mL (≈ 11 µM)
